The supplement of paper PMC8617591

Assays:
[1] = test system: Mycobacterium tuberculosis Erdman (autoluminescent); experiment: Einf, fitted maximum growth inhibition of combination (fraction); higher = stronger maximal inhibition
Protocol: (§1)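 DiaMOND equipotent two-drug combination dose responses against autoluminescent M. tuberculosis Erdman in 8 in vitro models. Read-out is OD600, or luminescence for the intracellular and dormancy models, normalised to untreated wells. Hill-fit Einf, AUC25 and GRinf are potency metrics; FIC50 and FIC90 are Loewe-additivity fractional inhibitory concentrations, given as log2 (negative = synergy). Replicates are averaged.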

[2] = test system: Mycobacterium tuberculosis Erdman (autoluminescent); experiment: FIC50 (Loewe) at 50% inhibition (log2); higher = more antagonistic
Protocol: as §1

[3] = test system: Mycobacterium tuberculosis Erdman (autoluminescent); experiment: GRinf, maximum normalised growth rate inhibition (unitless (-1 to 1)); higher = less effect (negative = killing)
Protocol: as §1

[4] = test system: Mycobacterium tuberculosis Erdman (autoluminescent); experiment: AUC25, normalised area under dose response up to IC25 (fraction (0-1)); higher = more potent at low dose
Protocol: as §1

[5] = test system: Mycobacterium tuberculosis Erdman (autoluminescent); experiment: FIC90 (Loewe) at 90% inhibition (log2); higher = more antagonistic
Protocol: as §1

CC[C@@H](CO)NCCN[C@@H](CC)CO [ethambutol] + O=[N+]([O-])c1cn2c(n1)OC[C@@H](OCc1ccc(OC(F)(F)F)cc1)C2 [pretomanid]
Details | AUC25, [4] | Einf, [1] | FIC50, [2] | FIC90, [5] | GRinf, [3]
in vitro model: acidic pH 5.7, time point: constant (~7 days, model-specific) | 0.113 | 0.847 | 0.0798 | -1.11 | -0.488
in vitro model: acidic pH 5.7, time point: terminal (~4-5 doublings, model-specific) | 0.0826 | 0.978 | 0.568 | 0.214 | -0.437
in vitro model: intracellular J774, time point: constant = terminal | – | 0.977 | – | -1.45 | -0.403

Details | AUC25, [4] | Einf, [1] | FIC50, [2] | FIC90, [5] | GRinf, [3]
in vitro model: butyrate, time point: constant (~7 days, model-specific) | 0.0746 | 0.924 | 0.254 | – | 0.00273
in vitro model: butyrate, time point: terminal (~4-5 doublings, model-specific) | 0.0585 | 0.967 | 0.0549 | -0.401 | -0.0359
in vitro model: cholesterol 0.05 mM, time point: constant (~7 days, model-specific) | 0.12 | 0.79 | 0.407 | – | -0.319
in vitro model: cholesterol 0.05 mM, time point: terminal (~4-5 doublings, model-specific) | 0.104 | 0.934 | 0.436 | 1.01 | -0.25
in vitro model: cholesterol-high 0.2 mM, time point: constant (~7 days, model-specific) | 0.0476 | 0.871 | 1.02 | – | -0.159
in vitro model: cholesterol-high 0.2 mM, time point: terminal (~4-5 doublings, model-specific) | 0.0356 | 0.99 | 0.975 | 1.06 | -0.498
in vitro model: dormancy (butyrate + nitrate, low O2), time point: constant (~7 days, model-specific) | 0.1 | 0.835 | 0.385 | – | 0.404
in vitro model: dormancy (butyrate + nitrate, low O2), time point: terminal (~4-5 doublings, model-specific) | 0.112 | 0.968 | 0.00245 | 0.272 | 0.0288
in vitro model: standard 7H9 glycerol, time point: constant = terminal | 0.076 | 0.958 | 0.211 | -0.156 | -0.109
in vitro model: valerate, time point: constant (~7 days, model-specific) | 0.111 | 0.836 | 0.23 | – | 0.0201
in vitro model: valerate, time point: terminal (~4-5 doublings, model-specific) | 0.0733 | 0.922 | 0.115 | 0.51 | 0.0884

NNC(=O)c1ccncc1 [isoniazid] + CC(=O)NC[C@H]1CN(c2ccc(N3CCOCC3)c(F)c2)C(=O)O1 [linezolid]
Details | AUC25, [4] | Einf, [1] | FIC50, [2] | FIC90, [5] | GRinf, [3]
in vitro model: acidic pH 5.7, time point: constant (~7 days, model-specific) | 0.0979 | 0.795 | 0.0411 | – | -0.178
in vitro model: acidic pH 5.7, time point: terminal (~4-5 doublings, model-specific) | 0.0773 | 0.963 | 0.877 | 0.0348 | -0.173
in vitro model: intracellular J774, time point: constant = terminal | – | 0.915 | – | 0.155 | -0.0635

Details | AUC25, [4] | Einf, [1] | FIC50, [2] | FIC90, [5] | GRinf, [3]
in vitro model: butyrate, time point: constant (~7 days, model-specific) | 0.0801 | 0.917 | 0.754 | 0.923 | 0.00442
in vitro model: butyrate, time point: terminal (~4-5 doublings, model-specific) | 0.0539 | 0.959 | 0.657 | 0.547 | 0.0109
in vitro model: cholesterol 0.05 mM, time point: constant (~7 days, model-specific) | 0.129 | 0.677 | 0.121 | – | -0.0433
in vitro model: cholesterol 0.05 mM, time point: terminal (~4-5 doublings, model-specific) | 0.14 | 0.945 | 4.49 | -0.681 | -0.23
in vitro model: cholesterol-high 0.2 mM, time point: constant (~7 days, model-specific) | 0.127 | 0.928 | -0.123 | 0.0406 | -0.371
in vitro model: cholesterol-high 0.2 mM, time point: terminal (~4-5 doublings, model-specific) | 0.119 | 1 | -0.0744 | 0.498 | -0.893
in vitro model: dormancy (butyrate + nitrate, low O2), time point: constant (~7 days, model-specific) | 0.0528 | 0.912 | 1.45 | 0.856 | 0.109
in vitro model: dormancy (butyrate + nitrate, low O2), time point: terminal (~4-5 doublings, model-specific) | 0.0354 | 0.989 | 1.06 | 0.558 | 0.00877
in vitro model: standard 7H9 glycerol, time point: constant = terminal | 0.0758 | 0.909 | 0.116 | 0.045 | 0.137
in vitro model: valerate, time point: constant (~7 days, model-specific) | 0.0661 | 0.818 | 0.548 | – | 0.0896
in vitro model: valerate, time point: terminal (~4-5 doublings, model-specific) | 0.0441 | 0.916 | 0.612 | 0.861 | 0.0931

NNC(=O)c1ccncc1 [isoniazid] + CO[C@H]1/C=C/O[C@@]2(C)Oc3c(C)c(O)c4c(O)c(c(/C=N/N5CCN(C6CCCC6)CC5)c(O)c4c3C2=O)NC(=O)/C(C)=C\C=C\[C@H](C)[C@H](O)[C@@H](C)[C@@H](O)[C@@H](C)[C@H](OC(C)=O)[C@@H]1C [rifapentine]
Details | AUC25, [4] | Einf, [1] | FIC50, [2] | FIC90, [5] | GRinf, [3]
in vitro model: acidic pH 5.7, time point: constant (~7 days, model-specific) | 0.0483 | 0.894 | 0.277 | – | -0.237
in vitro model: acidic pH 5.7, time point: terminal (~4-5 doublings, model-specific) | 0.0378 | 0.987 | 0.368 | 0.117 | -0.277
in vitro model: intracellular J774, time point: constant = terminal | – | 0.935 | – | -0.279 | -0.145

Details | AUC25, [4] | Einf, [1] | FIC50, [2] | FIC90, [5] | GRinf, [3]
in vitro model: butyrate, time point: constant (~7 days, model-specific) | 0.0724 | 0.903 | 0.471 | -0.186 | 0.0346
in vitro model: butyrate, time point: terminal (~4-5 doublings, model-specific) | 0.0522 | 0.951 | 0.425 | 0.159 | 0.0382
in vitro model: cholesterol 0.05 mM, time point: constant (~7 days, model-specific) | 0.0889 | 0.673 | 0.00942 | – | -0.0811
in vitro model: cholesterol 0.05 mM, time point: terminal (~4-5 doublings, model-specific) | 0.0939 | 0.917 | 0.122 | 1.12 | -0.127
in vitro model: cholesterol-high 0.2 mM, time point: constant (~7 days, model-specific) | 0.0721 | 0.937 | 0.338 | – | -0.348
in vitro model: cholesterol-high 0.2 mM, time point: terminal (~4-5 doublings, model-specific) | 0.0611 | 0.998 | 0.562 | 0.57 | -0.717
in vitro model: dormancy (butyrate + nitrate, low O2), time point: constant (~7 days, model-specific) | 0.0529 | 0.926 | 0.188 | -0.294 | 0.144
in vitro model: dormancy (butyrate + nitrate, low O2), time point: terminal (~4-5 doublings, model-specific) | 0.0384 | 0.985 | -0.00795 | -0.177 | -0.174
in vitro model: standard 7H9 glycerol, time point: constant = terminal | 0.0391 | 0.905 | 0.622 | 0.354 | 0.117
in vitro model: valerate, time point: constant (~7 days, model-specific) | 0.034 | 0.752 | 0.888 | – | 0.146
in vitro model: valerate, time point: terminal (~4-5 doublings, model-specific) | 0.0276 | 0.928 | 1 | 1.18 | -0.00496
